Results from publication PMC5740381 (Antimicrobial Agents and Chemotherapy, 2017).

Legend:
[1] = tested on: HCV genotype 1 to 6 replicons containing NS3 substitutions; assay: Transient replicon assay with engineered substitutions, summary over genotypes; type: cell-based, Hepatitis C virus
Experimental: Mutagenesis was performed using a Change-IT multiple-mutation site-directed mutagenesis kit (USB, Cleveland, OH) or by cloning a synthesized DNA fragment encoding the amino acid substitution(s). The genotype 1a and 1b replicon shuttle vectors used for the introduction of the substitutions of interest in the NS3, NS5A, or NS5B gene for transient-transfection assays have been described previously ([28], [33]). The replicon shuttle vectors used for the introduction of substitutions in NS3 genes from other genotypes were similar to the stable replicon cell line constructs described above, except for the absence of the neo gene. After mutagenesis, the plasmids were linearized and RNA was transcribed and then used to transfect Huh-7 cells. Inhibition of HCV replication by the HCV inhibitors was measured by luciferase assay, as described above. Replication efficiency was calculated as a percentage of wild-type replication, as described previously ([28]).

[2] = tested on: HCV genotype 1a replicon cells; assay: Drug-resistant colony selection in replicon cells; type: cell-based, Hepatitis C virus
Excerpt: (§1) . After approximately 3 weeks of treatment, the surviving replicon colonies in one plate for each selection condition were stained with crystal violet and counted, whereas approximately 20 to 30 colonies in a replicate plate or most of the colonies, if less than 20 colonies survived the selection, were picked and further expanded for genotyping. The expanded colonies were lysed in CellsDirect lysis buffer (Invitrogen, MA), and the NS3-coding region from each colony was amplified by reverse transcription-PCR and sequenced. For genotype 1a, 1b, 2a, and 5a colonies, the full-length NS3 sequence was determined, whereas for colonies of the chimeric replicon containing the N-terminal region of NS3 from genotype 2b, 3a, 4a, or 6a, the sequence encoding the NS3 N-terminal region was determined. We defined a substitution in a replicon to be an amino acid difference in a sequence from a posttreatment sample relative to the sequence of the corresponding untreated sample. For resistance selection studies, NS3 substitutions detected at the following amino acid positions associated with resistance to the HCV PI class in >2 colonies in each replicon selection are reported: 36, 43, 54, 55, 56, 80, 122, 155, 156, and 168. In addition, substitutions detected at other amino acid positions in the NS3 protease domain in >2 colonies in each replicon selection are also reported.
(§2) […]. The drug-resistant colonies were fixed and stained with crystal violet, and the number of colonies was determined.

[3] = tested on: HCV genotype 1b replicon cells; assay: Drug-resistant colony selection in replicon cells; type: cell-based, Hepatitis C virus
Excerpt: as §1, §2

[4] = tested on: HCV genotype 3a replicon cells; assay: Drug-resistant colony selection in replicon cells; type: cell-based, Hepatitis C virus
Excerpt: as §1

[5] = tested on: HCV genotype 4a replicon cells; assay: Drug-resistant colony selection in replicon cells; type: cell-based, Hepatitis C virus
Excerpt: as §1

[6] = tested on: HCV genotype 6a replicon cells; assay: Drug-resistant colony selection in replicon cells; type: cell-based, Hepatitis C virus
Excerpt: as §1

[7] = tested on: HCV genotype 2a replicon cells; assay: Drug-resistant colony selection in replicon cells; type: cell-based, Hepatitis C virus
Excerpt: as §1

[8] = tested on: HCV genotype 2b replicon cells; assay: Drug-resistant colony selection in replicon cells; type: cell-based, Hepatitis C virus
Excerpt: as §1

[9] = tested on: HCV genotype 5a replicon cells; assay: Drug-resistant colony selection in replicon cells; type: cell-based, Hepatitis C virus
Excerpt: as §1

HCV NS3/4A protease GT1b = HCV NS3/4A protease GT1b (Hepatitis C virus genotype 1b, UniProt Q9WPH5); assay: HCV NS3/4A protease biochemical assay; details: 30 min preincubation, read-out: Mean IC50 ± SD
Excerpt: (§3) . […] Genes encoding NS3/4A were derived from laboratory strains 1a-H77 (GenBank accession number NC_004102) and 1b-N (GenBank accession number AF139594) or from clinical samples from patients infected with genotype 2a, 2b, 3a, or 4a. All patients provided written informed consent. Clinical studies were designed according to Good Clinical Practice guidelines, the Declaration of Helsinki, and applicable local regulations, with independent ethics committee or institutional review board approval for all study sites. The genotype 5a NS3/4A gene sequence was synthetically constructed based on the sequence of the clinical isolate SA13 (GenBank accession number AF064490) ([48]), whereas the genotype 6a NS3/4A gene sequence was synthetically constructed based on a consensus sequence derived from the alignment of 15 genotype 6a sequences available in GenBank. The NS3/4A genes were each cloned into the protein expression vector pET14b (Novagen, Madison, WI), and a clone with an NS3/4A protease sequence that matched the consensus sequence for each sample was subsequently selected for protein expression and purification. Protease activity was measured by continuous monitoring of the fluorescence change associated with the cleavage of a fluorogenic depsipeptide (EDANS/DABCYL) substrate using a purified recombinant HCV NS3/4A protease as described previously ([49]). […]

HCV NS3/4A protease GT2b = HCV NS3/4A protease GT2b (Hepatitis C virus genotype 2b, UniProt P26661); assay: HCV NS3/4A protease biochemical assay; details: 30 min preincubation, read-out: Mean IC50 ± SD
Excerpt: as §3

HCV NS3/4A protease GT6a = HCV NS3/4A protease GT6a (Hepatitis C virus genotype 6a, UniProt O39927); assay: HCV NS3/4A protease biochemical assay; details: 30 min preincubation, read-out: Mean IC50 ± SD
Excerpt: as §3

HCV genotype 1 = details: 3-day monotherapy, daily doses of 100 to 700 mg, genotype 1 treatment-naive patients; cited from earlier work
HBV = assay: Anti-HBV assay, extracellular HBV DNA by quantitative PCR; type: cell-based; details: Hepatitis B virus, read-out: Mean EC50 ± SD
[10] = tested on: HCV genotype 1 to 6 NS3/4A proteases; assay: HCV NS3/4A protease biochemical assay, all genotypes; parameters: species or system Hepatitis C virus; details: read-out: IC50, range over proteases
Excerpt: as §3

For `Cc1cnc(C(=O)N[C@H]2CCCCC/C=C\[C@@H]3C[C@@]3(C(=O)NS(=O)(=O)C3CC3)NC(=O)[C@@H]3C[C@@H](Oc4nc5ccccc5c5ccccc45)CN3C2=O)cn1` [Paritaprevir], the “Fold decrease in susceptibility” value ([1]; R155 substitutions in genotypes 1, 3 and 4) was 5.2- to 59 fold and the “Fold reduction in antiviral activity, range” value ([1]; replicons with A156 substitutions in genotypes 1 to 4) was 1.7- to 155 fold.

Compound `CC(C)(C)[C@@H]1NC(=O)O[C@@H]2CCC[C@H]2OC/C=C/C(F)(F)c2nc3ccccc3nc2O[C@@H]2C[C@@H](C(=O)N[C@]3(C(=O)NS(=O)(=O)C4(C)CC4)C[C@H]3C(F)F)N(C2)C1=O` [Glecaprevir, (3aR,7S,10S,12R,21E,24aR)-7-tert-butyl-N-[(1R,2R)-2-(difluoromethyl)-1-{[(1-methylcyclopropyl)sulfonyl]carbamoyl}cyclopropyl]-20,20-difluoro-5,8-dioxo-2,3,3a,5,6,7,8,11,12,20,23,24a-dodecahydro-1H,10H-9,12-methanocyclopenta[18,19][1,10,17,3,6]trioxadiazacyclononadecino[11,12-b]quinoxaline-10-carboxamide] has a Colony survival ([2]; 10× EC50, about 3 weeks) of 0.043%, a Colony survival ([2]; 100× EC50) of 0.0029% and a Colony survival ([3]; 10× EC50, about 3 weeks) of 0.047%. It also gave a Colony survival ([3]; 100× EC50) of 0.03%, a Colony survival ([4]; 10× EC50, 1 × 10^4 input cells) of 0.1% and a Colony survival ([4]; 100× EC50) of 0.0003%. For the same compound, the Colony survival ([5]; 10× EC50) was 0.0015%, the Colony survival ([5]; 100× EC50) was 0.0018% and the Colony survival ([6]; 10× EC50) was 0.018%. For the same compound, the Colony survival ([6]; 100× EC50) was 0%, the Colony survival ([7]; 10× EC50) was >0.05% and the Colony survival ([7]; 100× EC50) was >0.05%. The Colony survival ([8]; 10× EC50) was >0.05%, the Colony survival ([8]; 100× EC50) was >0.05% and the Colony survival ([9]; 10× EC50) was 0.001%. For the same compound, the Colony survival ([9]; 100× EC50) was 0%, the IC50 (HCV NS3/4A protease GT1b) was 8.9 ± 1.6 nM and the IC50 (HCV NS3/4A protease GT2b) was 3.8 ± 0.96 nM. The IC50 (HCV NS3/4A protease GT6a) was 11.3 ± 1.8 nM, the “Mean maximal decrease in HCV plasma viral load from baseline” value (HCV genotype 1) was 3.8 to 4.3 log10 IU/ml and the EC50 (HBV) was > 32000 nM. For the same compound, the IC50 [10] was 3.5 to 11.3 nM.
